Series [1] concerns p44/42 Erk1/2. As to the kind of experiment: IL-2-mediated p44/42 Erk1/2 phosphorylation in PHA-activated T cells. The settings on record: human T-cells, 2 hours drug. The class given is cell-based. As for the experimental part:
Solubilization of membrane proteins, immunoprecipitation, and Western blot analysis. Frozen cell pellets were thawed on ice and solubilized in 1% TX-100 lysis buffer (10^8 cells/ml) and clarified by centrifugation, as previously described.^16 For human T-cells, supernates were incubated rotating end over end for 2 hours at 4° C. with either 5 μl/ml polyclonal rabbit antisera raised against peptides derived from the unique COOH-termini of Jak3 (amino acid [a.a.] 1104-1124), carboxyl termini of human Stat5a (a.a. 775-794) or Stat5b (a.a. 777-787).^26 Ab and immunoprecipitated proteins were captured by incubation for 30 minutes with Protein A-Sepharose beads (Pharmacia, Piscataway, N.J.), sedimented for purification, and eluted by boiling in 2×SDS-sample buffer (20% Glycerol, 10% 2-Mercaptoethanol, 4.6% SDS, 0.004% Bromophenol blue in 0.125 M Tris pH 6.8) for 4 minutes. For phosphoMapk assays, approximately 25 μg of total cell lysate was dissociated in SDS-sample buffer and separated on 10% (all others on 7.5%) SDS-PAGE under reducing conditions. […]

For series [2], the system named is Stat5a/b. As to the kind of experiment: Stat5a/b DNA binding, EMSA in PHA activated T-cells. The class given is cell-based, human. The settings on record: increasing concentrations. As for the experimental part: EMSA. Electrophoretic mobility shift assay (EMSA). Drug or vehicle control (DMSO) treated cells were pelleted by centrifugation (20,000×g for 1 min at 4° C.) and subsequently washed in five volumes of 10 mM HEPES, pH 7.9, 10 mM KCl, 1.5 mM MgCl2, 0.5 mM DTT, […], 5 μg/ml aprotinin, 1 μg/ml pepstatin A and 2 μg/ml leupeptin, centrifuged, then lysed in the same buffer supplemented with 1% NP-40 and incubated for 20 min on ice. The nuclei-containing pellet was resuspended in equal volumes of low salt buffer (10 mM HEPES, 25% glycerol, 1.5 mM MgCl2, 20 mM KCl, 0.5 mM DTT, 0.2 mM EDTA and protease inhibitors) and high salt buffer (low salt buffer containing 800 mM KCl). This fraction was then isolated by centrifugation at 4° C. for 10 min and supernatants saved as nuclear protein extract and stored at −70° C. Gel mobility shift assays were performed to detect Stat5a/b DNA binding activity using a Stat5 DNA binding sequence corresponding to the promoter of the β-casein gene (5′-[…]-3′) or an NF-kB binding element (5′-[…]-3′). Both probes were end-labeled with [^32P]dATP. […]
In FIG. 9A, it can be seen that NC1153 inhibits Jak3 driven transcription factor-Stat5a/b in PHA activated T-cells treated with increasing concentrations of NC1153 in a dose dependent manner as measured via EMSA analysis (upper panel). […]

The test system of series [3] is human Jurkat T-cells. Briefly: Growth / DNA synthesis of non-Jak3 expressing Jurkat cells. It counts as cell-based.
The conditions of series [4]: rat, in vivo.
The test system of series [5] is LEW kidney allografts. Briefly: Rat kidney allograft survival (LEW donors to ACI recipients). It counts as in vivo.
Where [6] appears, read: 160 mg/kg NC1153 oral gavage 7 days, thereafter 3×/week up to 90 days.

Entries after “also recorded” stand apart in the source; their conditions may differ. Like-named read-outs stand apart in the source and are kept apart here. A value given as a limit tells only on which side of the number the result lay.

As to `CN(C)CC1CCCCCCCCCC(CN(C)C)C1=O` (mixture of isomers) [649641P (NC1153)], in series [1], the “IL2-mediated Erk1/2 phosphorylation / activation” value is reported as “blocks IL2-mediated Erk1/2 activation; also recorded: inhibited tyrosine phosphorylation”. Moreover, the “Stat5a/b DNA binding (EMSA)” value in series [2] is “inhibits; also recorded: greatly impaired”. In series [2] (listed as NC1153), the “Stat5a/b DNA binding (EMSA)” value is “inhibits”. The “cell growth / DNA synthesis of Jurkat cells” value in series [3] was “did not inhibit DNA synthesis”. Moreover, the “cell growth / DNA synthesis of Jurkat cells” value in series [3] (listed as NC1153) is given as “does not block cell growth”. Moreover, in series [4], the HDL entry was “increased HDL”; the “HDL, LDL, or TG levels” value is on record as “no effect”; the “TG or LDL levels” value is on record as “without changing TG or LDL levels”; the overall toxicity conclusion entry is “free of nephrotoxic and myelotoxic effects with mild lipotoxicity on high-fat challenge”. For the same compound, the “peripheral blood counts (PBC)” value in series [4] was “Neither 648641P nor CsA reduced PBC”. In addition, in series [5] (setting [6]), the “survival times of recipients surviving beyond 90 days” value was “exceeding 200 days” and the “treated recipients surviving beyond treatment of 90 days” value worked out at 75%. Also, in series [5] (649641P (NC1153) 240 mg/kg/day p.o. for 14 days), the MST was > 60 days.

The values above are taken from patent publication US7365096B2, “Methods for selectively inhibiting Janus tyrosine kinase 3 (Jak3)” (Board of Regents, The University of Texas System, priority 2002, dated 2008).
